Patent US5789431A, “Naphthoquinone antitumor compound and method” (The University of North Carolina at Chapel Hill, priority 1996, dated 1998)

Assays:
HL-60(TB) = assay: in vitro leukemia cell growth inhibition (NCI screen)
NCI-H522 = assay: in vitro non-small cell lung cancer cell growth inhibition (NCI screen)
MOLT-4 = assay: in vitro leukemia cell growth inhibition (NCI screen)
UACC-257 = assay: in vitro melanoma cell growth inhibition (NCI screen)
RXF-393 = assay: in vitro renal cancer cell growth inhibition (NCI screen)
K-562 = assay: in vitro leukemia cell growth inhibition (NCI screen)
SW 620 = assay: in vitro colon cancer cell growth inhibition (NCI screen)
human tumor cell lines = format: cell-based; conditions: Homo sapiens; cancer cell panel, general / most cell lines; read-out: logGI50 values in the cancer cell line panel (converted)
IGROV1 = assay: in vitro ovarian cancer cell growth inhibition (NCI screen)
MALME-3M = assay: in vitro melanoma cell growth inhibition (NCI screen)
PC-3 = assay: in vitro prostate cancer cell growth inhibition (NCI screen)
HCT-15 = assay: in vitro colon cancer cell growth inhibition (NCI screen)
NCI-H266 = assay: in vitro non-small cell lung cancer cell growth inhibition (NCI screen)
T-47D = assay: in vitro breast cancer cell growth inhibition (NCI screen)
HOP-92 = assay: in vitro non-small cell lung cancer cell growth inhibition (NCI screen)
CCRF-CEM = assay: in vitro leukemia cell growth inhibition (NCI screen)
ACHN = assay: in vitro renal cancer cell growth inhibition (NCI screen)
UACC-62 = assay: in vitro melanoma cell growth inhibition (NCI screen)
U 251 = assay: in vitro CNS cancer cell growth inhibition (NCI screen)
HCT-116 = assay: in vitro colon cancer cell growth inhibition (NCI screen)
NCI-H23 = assay: in vitro non-small cell lung cancer cell growth inhibition (NCI screen)
SR = assay: in vitro leukemia cell growth inhibition (NCI screen)
XF-498 = assay: in vitro CNS cancer cell growth inhibition (NCI screen)
OVCAR-8 = assay: in vitro ovarian cancer cell growth inhibition (NCI screen)
DLD-1 = assay: in vitro colon cancer cell growth inhibition (NCI screen)
SNB-75 = assay: in vitro CNS cancer cell growth inhibition (NCI screen)
SF-539 = assay: as above
RPMI-8226 = assay: in vitro leukemia cell growth inhibition (NCI screen)
LOX1MVI = assay: in vitro melanoma cell growth inhibition (NCI screen)
SK-MEL-5 = assay: as above
UO-31 = assay: in vitro renal cancer cell growth inhibition (NCI screen)
M19-MEL = assay: in vitro melanoma cell growth inhibition (NCI screen)
SK-MEL-2 = assay: as above
OVCAR-3 = assay: in vitro ovarian cancer cell growth inhibition (NCI screen)
COLO-205 = assay: in vitro colon cancer cell growth inhibition (NCI screen)
MDA-MB-435 = assay: in vitro breast cancer cell growth inhibition (NCI screen)
MDA-N = assay: as above
HT 29 = assay: in vitro colon cancer cell growth inhibition (NCI screen)
KM 12 = assay: as above
MCF-7 = assay: in vitro breast cancer cell growth inhibition (NCI screen)
SF-268 = assay: in vitro CNS cancer cell growth inhibition (NCI screen)
M14 = assay: in vitro melanoma cell growth inhibition (NCI screen)
OVCAR-4 = assay: in vitro ovarian cancer cell growth inhibition (NCI screen); conditions: OVACR-4

Compound	cytotoxicity log GI50 (HL-60(TB)) [M]	cytotoxicity log GI50 (NCI-H522) [M]	cytotoxicity log GI50 (UACC-257) [M]	cytotoxicity log GI50 (RXF-393) [M]	cytotoxicity log GI50 (K-562) [M]	cytotoxicity log GI50 (SW 620) [M]	cytotoxicity log GI50 (MALME-3M) [M]	cytotoxicity log GI50 (HCT-15) [M]	cytotoxicity log GI50 (CCRF-CEM) [M]	cytotoxicity log GI50 (ACHN) [M]	cytotoxicity log GI50 (UACC-62) [M]	cytotoxicity log GI50 (HCT-116) [M]	cytotoxicity log GI50 (NCI-H23) [M]	cytotoxicity log GI50 (XF-498) [M]	cytotoxicity log GI50 (SF-539) [M]	cytotoxicity log GI50 (OVCAR-3) [M]	cytotoxicity log GI50 (MDA-N) [M]	cytotoxicity log GI50 (KM 12) [M]	also measured
O=C(NC1=C(Cl)C(=O)c2ccccc2C1=O)c1ccc(F)cc1 [Compound 2f]	-6.47	-6.34	-5.71	-5.90	-6.04	-6.11	-5.82	-6.27	-6.10	-6.03	-6.55	-6.34	–	–	–	–	–	–	cytotoxicity log GI50 (MOLT-4): -5.65 M; GI50 (human tumor cell lines): ~1000 nM; cytotoxicity log GI50 (IGROV1): -5.77 M; cytotoxicity log GI50 (PC-3): -5.95 M; cytotoxicity log GI50 (NCI-H266): -5.96 M; cytotoxicity log GI50 (T-47D): -5.72 M; cytotoxicity log GI50 (HOP-92): -5.79 M; cytotoxicity log GI50 (U 251): -5.73 M
O=C(Cc1ccc(F)cc1)NC1=C(Cl)C(=O)c2ccccc2C1=O [Compound 2j]	-7.56	–	–	-5.75	–	-5.68	-5.67	-5.64	–	-5.70	–	–	-5.89	-5.71	-5.65	–	–	–	GI50 (human tumor cell lines): 25.1 to 2510 nM; cytotoxicity log GI50 (SR): -6.88 M; cytotoxicity log GI50 (IGROV1): -5.73 M; cytotoxicity log GI50 (HOP-92): -5.72 M; cytotoxicity log GI50 (OVCAR-8): -5.71 M; cytotoxicity log GI50 (DLD-1): -5.62 M; cytotoxicity log GI50 (SNB-75): -5.66 M; cytotoxicity log GI50 (RPMI-8226): -7.07 M
CCC(C)(C)NC1=C(NC(C)=O)C(=O)c2ccccc2C1=O [Compound 36]	-4.78	-4.99	-4.69	-4.60	-4.68	–	-4.54	–	-4.77	-4.82	-4.60	-4.75	-4.72	-4.84	-4.61	–	–	–	cytotoxicity log GI50 (MOLT-4): -4.86 M; cytotoxicity log GI50 (LOX1MVI): -4.53 M; cytotoxicity log GI50 (SK-MEL-5): -4.87 M; cytotoxicity log GI50 (SR): -4.50 M; cytotoxicity log GI50 (UO-31): -4.56 M; cytotoxicity log GI50 (M19-MEL): -4.88 M; cytotoxicity log GI50 (SK-MEL-2): -4.68 M
CC(=O)NC1=C(NCC(C)(C)C)C(=O)c2ccccc2C1=O [Compound 38]	-4.49	-4.72	-4.30	-4.43	-4.42	–	-4.46	-4.26	-4.42	-4.57	-4.41	-4.47	–	-4.59	-4.48	-4.26	–	–	cytotoxicity log GI50 (SK-MEL-5): -4.40 M; cytotoxicity log GI50 (UO-31): -4.33 M; cytotoxicity log GI50 (COLO-205): -4.41 M; cytotoxicity log GI50 (M19-MEL): -4.68 M
CCCC(=O)NC1=C(NCC)C(=O)c2ccccc2C1=O [Compound 46]	-4.39	-4.59	-4.40	-4.32	-4.29	-4.48	-4.41	-4.40	–	–	–	-4.36	–	–	–	-4.47	-4.68	-4.28	cytotoxicity log GI50 (MDA-MB-435): -4.60 M; cytotoxicity log GI50 (PC-3): -4.39 M; cytotoxicity log GI50 (HT 29): -4.36 M; cytotoxicity log GI50 (COLO-205): -4.44 M
COC(=O)CCCC(=O)NC1=C(Nc2ccccc2)C(=O)c2ccccc2C1=O [Compound 52]	–	–	–	–	–	–	-5.45	–	–	–	-5.49	–	-4.97	–	–	-4.90	-5.41	-5.28	cytotoxicity log GI50 (MDA-MB-435): -5.26 M
O=C(O)CCCc1nc2c(n1-c1ccccc1)C(=O)c1ccccc1C2=O [Compound 58]	-4.43	-4.85	-4.48	–	–	–	-4.67	–	-4.39	–	-4.48	-4.31	–	–	–	-4.47	-4.36	-4.50	cytotoxicity log GI50 (MCF-7): -4.49 M; cytotoxicity log GI50 (SF-268): -4.42 M; cytotoxicity log GI50 (SNB-75): -4.36 M; cytotoxicity log GI50 (M14): -4.72 M; cytotoxicity log GI50 (RPMI-8226): -4.39 M; cytotoxicity log GI50 (OVCAR-4): -4.62 M
